In patent publication US9809562B2, “NAT10 modulators for treating or preventing laminopathies, aging and cancer” (CAMBRIDGE ENTERPRISE LIMITED, priority 2014, dated 2017):
Counter-ions that a name gives are not always drawn.

Experiments:
[1] = system: LMNA knock out (KO) U2OS cell line; assay: Cell growth of LMNA KO versus LMNA WT U2OS cells (IncuCyte ZOOM); type: cell-based, human; details: U2OS, CripR/Cas9 LMNA KO
Excerpt: LMNA knock out (KO) U2OS cell line was engineered using CripR/Cas9 technology. The sensitivity of LMNA KO cells to Compound 2 was compared to cells expressing wild type LMNA (LMNA WT). Cell growth was monitored automatically over time using an IncuCyte ZOOM®. The results are shown in FIG. 21 which has been split into two graphs for easier reading of the curves.

[2] = system: prostate 22RV1 cancer cells; assay: Matrigel invasion assay; type: cell-based, human; details: 50 μM
Description: FIG. 15: Compound 2 inhibits the proliferation, migration and invasion of cancer cells with low Lamin A/C expression. […] C) Quantification of transwell migration assays and matrigel invasion assays from the indicated low expressing cancer cell lines after treatment with 50 μM of compound 2.

Normal fibroblasts = assay: Microarray gene expression, normal fibroblasts; type: cell-based, human; details: 1 μM, 12 population doublings
Description: Normal fibroblasts or HGPS fibroblasts were kept in culture for 12 population doublings with chronic treatment of 1 μM Compound 2 (top panels of FIG. 29) or transfected with siRNA against NAT10 for 3 days (bottom panels of FIG. 29). RNA was extracted and global gene expression was analysed by microarray. Volcano plots show a very high specificity of Compound 2 towards gene expression regulation of HGPS cells, with about 1000 genes affected more than 2 fold, whereas only 24 genes were affected in normal fibroblasts.

[3] = system: main lysine acetyltranferase proteins (KAT); assay: In vitro specificity against lysine acetyltransferases; type: biochemical
[4] = system: cells derived from patients with Emery-Dreifuss muscular dystrophy (EDMD); assay: γH2AX in Emery-Dreifuss muscular dystrophy cells; type: cell-based, human
Excerpt: FIG. 12: Remodelin improves global cellular fitness of HGPS cells. A) NAT10 depletion in normal fibroblasts and HGPS AG11498 cells observed by western blotting, and showing that siNAT10 has no effect on Lamin A/C expression and processing. B) IF images showing nuclear shape improvement and decreased numbers of γH2AX foci in HGPS cells upon Remodelin treatment. Scale bars: 10 μm. C) Western Blotting analysis showing that Remodelin decreases γH2AX levels in both HGPS cell lines tested. D) IF images showing nuclear shape improvement and decreased intensity of γH2AX staining in Emery-Dreifuss muscular dystrophy cells (EDMD) upon Remodelin treatment. Scale bars: 10 μm. E) Western Blotting analysis showing that Remodelin decreases γH2AX levels in EDMD. F) Western blotting analysis showing the effect of Remodelin on the p53 and DNA damage signalling pathways in HGPS AG11498 cells. G) Representative IF images of H3K9me3 or SUN1 patterns quantified in H). Scale bars: 20 μm. […]
Total cell extracts were prepared by scraping cells in SDS lysis buffer (4% SDS, 20% glycerol, and 120 mM Tris-HCl, pH 6.8), boiling for 5 minutes at 95° C., followed by 10 strokes through a 25-gauge needle. […] Detection and quantification was performed with an imager (Odyssey; LI-COR Biosciences). […]

HGPS cells [5] = assay: EdU incorporation by flow cytometry in HGPS cells; type: cell-based, human; details: 2 hours EdU
Description: 10 μM EdU was incubated for 2 hours when indicated. Cells were fixed in 4% paraformaldehyde (Sigma-Aldrich). EdU was fluorescently labeled using the Click-iT® EdU Flow Cytometry Assay Kit (Life Sciences). DNA was stained with […] propidium iodide (Sigma-Aldrich) in phosphate buffer solution (PBS) containing 0.1% Triton-X-100 and 0.5 mg ml^−1 DNase free RNase A (Sigma-Aldrich). Samples were processed on a FACSCalibur flow cytometer equipped with CellQuest software (Becton Dickinson). Results were analysed using FlowJo software (TreeStar).

HGPS cells [6] = assay: Chromatin, nucleolar and SUN1 organization in HGPS cells (IF); type: cell-based, human; details: Remodelin 1 μM
Description: The following KAT and KDAC inhibitors were used in the nuclear shape rescue screen, incubating cells with the molecules for 16 hours: trichostatin A (1 μM), sodium butyrate (5 mM), tubacin (10 μM), SAHA (5 μM), curcumin (10 μM), garcinol (50 μM), anacardic acid (1 μM), MB-3 (5 μM), 4-(4-chlorophenyl)-2-(2-cyclopentylidenehydrazinyl)thiazole (Compound 2) (50 μM), 4-(4-chlorophenyl)-2-(2-cyclopentylidene-1-(prop-2-yn-1-yl)hydrazinyl)thiazole (Compound 3) (50 μM) and cyclopentylidene-[4-(4-cyanophenyl)thiazol-2-yl)hydrazine (Compound 1) (Remodelin) (10 to 50 μM). For HGPS cellular fitness assays, Remodelin was incubated at 1 μM for 1 to 10 days, renewing the medium every 3 days. For long-term senescence assay, cells were kept and passaged in medium containing 1 μM Remodelin or DMSO only for 12 population doublings. Senescence was assessed after 8 days of Remodelin treatment when cells were at Population Doubling 12, and then after several weeks of Remodelin treatment, when cells reached Population Doubling 24 using the Senescence β-Galactosidase Staining Kit #9860 from Cell Signaling. Nocodazole, colchicine and latrunculin A (Sigma-Aldrich) were used at 200 ng/ml, 1 μg/ml and 1 μM respectively. Aphidicolin (Sigma-Aldrich) was used at 5 μg/ml for 16 h. Farnesyltransferase inhibitor FTI-277 was purchased from Tocris Bioscience and used at 5 μM. […]

| Structure (SMILES) | cell growth inhibition of LMNA KO versus LMNA WT cells [1] | matrigel invasion of 22RV1 cells [2] | number of genes affected (Normal fibroblasts) | inhibition of KAT activity towards histone substrates [3] | γH2AX levels in EDMD cells [4] | DNA replication (EdU incorporation) (HGPS cells [5]) | SUN1 accumulation at the nuclear envelope (HGPS cells [6]) | chromatin and nucleolar organization (H3K9me3 and NAT10 staining) (HGPS cells [6]) |
| --- | --- | --- | --- | --- | --- | --- | --- | --- |
| Clc1ccc(-c2csc(NN=C3CCCC3)n2)cc1 [Compound 2, 4-(4-Chlorophenyl)-2-(2-cyclopentylidenehydrazinyl)thiazole Hydrochloride Salt] | specificity of Compound 2 towards inhibiting cell growth of LMNA KO cells | no invasion upon treatment | 24 genes | does not inhibit the activity of the main lysine acetyltranferase proteins (KAT) | – | – | – | – |
| N#Cc1ccc(-c2csc(NN=C3CCCC3)n2)cc1 [Compound 1, 4-(4-Cyanophenyl)-2-(2-cyclopentylidenehydrazinyl)thiazole] | – | – | – | – | decreased levels of γH2AX | improved DNA replication | decreased SUN1 accumulation at the nuclear envelope | improved chromatin and nucleolar organization |
